The test concerns cotton aphids (Aphis gossypil). Kind of test: Test method 1: foliar spray on cucumber seedlings infested with cotton aphids. The settings on record: 200 ppm, spray 10 mL/seedling, counted 5 days after spraying, 25° C. In kind it is in vivo. On the procedure:
Next, Test Examples are used to show effects of the Present compounds on harmful arthropods. In the following Test Examples, the tests were carried out at 25° C. […] Cucumber (Cucumis sativus) seedlings (on the developmental stage of the second true leaf) are planted in a container and approximately 30 cotton aphids (Aphis gossypil) (all stages of life) are released onto the cucumber seedlings. After 1 day, each of said diluted solutions is sprayed into the seedlings in a ratio of 10 mL/seedling. After additional 5 days, the number of the surviving insects is examined and the controlling value is calculated by the following equation. Controlling value (%)={1-(Cb×Tai)/(Cai×Tb)}×100 wherein the symbols in the equation represent the following meanings. • Cb: Number of the test insects in non-treated area; • Cai: Number of the surviving insects at the time of the investigation in non-treated area; • Tb: Number of the test insects in treated area; • Tai: Number of the surviving insects at the time of the investigation in treated area; Here, the “non-treated area” represents an area where the same treatment procedure as that of the treated area is done except for not using each test compound.

Results on one compound are retold here after patent US12234247B2, “Heterocyclic compound and harmful arthropod-controlling composition containing same” (SUMITOMO CHEMICAL COMPANY, LIMITED, priority 2019, dated 2025).

In the case of `CCS(=O)(=O)c1c(-n2nc3ccc(C(F)(F)F)cn3c2=O)nc2ccc(C(F)(F)F)cn12` [compound 2], the controlling value is not below 90%.
